From patent publication US20250205244A1, “METHODS OF TREATING MIGRAINE WITH MNK INHIBITORS” (4E Therapeutics, Inc., priority 2021, published 2025)
pIC50: −log10 of the molar value.

What was measured:
[1] = test system: WT mice, dural IL-6; assay: Dural IL-6-induced acute facial hypersensitivity and grimace in mice; assay type: in vivo, mouse; conditions: female and male WT mice; 10 mg/kg oral gavage prior to dural IL-6 (0.1 ng); compared to the vehicle group
Text: Female and male MNK1 KO mice were a gift of the Sonenberg laboratory at McGill University and bred at the University of Texas at Dallas (UTD) to generate experimental animals (Ueda T, et al., MNK2 and MNK1 are essential for constitutive and inducible phosphorylation of eukaryotic initiation factor 4E but not for cell growth or development. Mol Cell Biol. August 2004). Genotype was confirmed at weaning using DNA from ear clips. Experimental C57BL6/J wild-type (WT) animals were obtained from an internally maintained C57BL/6 J colony at the University of Texas at Dallas. For pharmacological studies, female and male ICR (CD-1) mice aged 6-8 weeks (˜25-30 g) were outbred and purchased from Envigo. All mice were housed in groups of four animals per cage on a 12-hour light-dark cycle and had access to food and water ad libitum. Upon arrival to the animal care facility, animals were allowed a minimum of 72 hours to acclimate to their new environment before being handled for experiments. All experiments were performed between the hours of 9:00 AM and 5:00 PM. All procedures were conducted with prior approval of the Institutional Animal Care and Use Committee at the University of Texas at Dallas.
For dural injections, human recombinant interleukin-6 (IL-6) protein (R&D Systems) stock solution ([…]) was prepared in sterile 0.1% BSA and diluted to 1 ng/ml in synthetic interstitial fluid (SIF) consisting of 135 mM NaCl, 5 mM KCl, 10 mM HEPES, 2 mM CaCl2), 10 mM glucose, 1 mM MgCl2 (pH 7.4, 310 mOsm). Sodium nitroprusside (SNP) (Sigma-Aldrich) was prepared fresh in sterile phosphate buffered saline (PBS) at the time of use and was kept away from light. To test for the presence of hyperalgesic priming, mice were given a 150 μL IP injection of 0.1 mg/kg of SNP or a 5 μL dural injection of SIF solution that was brought to a pH of 7.0, as previously described (Avona A., et al., Repetitive stress in mice causes migraine-like behaviors and CGRP-dependent hyperalgesic priming to a migraine trigger. Pain. (2020); Burgos-Vega C. C. et al., Non-invasive dural stimulation in mice: A novel preclinical model of migraine. Cephalalgia. (2019)). […] MNK inhibitors were given orally to WT mice at 10 mg/kg approximately 1 hr prior to dural IL-6 or dural pH 7.0.
Mouse dural injections were performed as previously described (Burgos-Vega C. C. et al., Non-invasive dural stimulation in mice: A novel preclinical model of migraine. Cephalalgia. (2019)). Mice were anesthetized under isoflurane for <2 min with <2.5-3% isoflurane via a chamber and given a 5 μL injection via a modified internal cannula (Invivo1, part #8IC313ISPCXC, Internal Cannula, standard, 28 gauge, fit to 0.5 mm). […]

[2] = test system: WT mice, dural pH 7.0 after dural IL-6; assay: Hyperalgesic priming to dural pH 7.0 after dural IL-6 in mice; assay type: in vivo, mouse; conditions: female and male WT mice
Text: Female and male MNK1 KO mice were a gift of the Sonenberg laboratory at McGill University and bred at the University of Texas at Dallas (UTD) to generate experimental animals (Ueda T, et al., MNK2 and MNK1 are essential for constitutive and inducible phosphorylation of eukaryotic initiation factor 4E but not for cell growth or development. Mol Cell Biol. August 2004). Genotype was confirmed at weaning using DNA from ear clips. Experimental C57BL6/J wild-type (WT) animals were obtained from an internally maintained C57BL/6 J colony at the University of Texas at Dallas. For pharmacological studies, female and male ICR (CD-1) mice aged 6-8 weeks (˜25-30 g) were outbred and purchased from Envigo. All mice were housed in groups of four animals per cage on a 12-hour light-dark cycle and had access to food and water ad libitum. Upon arrival to the animal care facility, animals were allowed a minimum of 72 hours to acclimate to their new environment before being handled for experiments. All experiments were performed between the hours of 9:00 AM and 5:00 PM. All procedures were conducted with prior approval of the Institutional Animal Care and Use Committee at the University of Texas at Dallas. […]

[3] = target: recombinant human kinase, MNK1 (Homo sapiens, UniProt Q9BUB5); assay: MNK1 substrate phosphorylation assay; assay type: biochemical
Sequence of recombinant human kinase, MNK1 (Q9BUB5 whole entry): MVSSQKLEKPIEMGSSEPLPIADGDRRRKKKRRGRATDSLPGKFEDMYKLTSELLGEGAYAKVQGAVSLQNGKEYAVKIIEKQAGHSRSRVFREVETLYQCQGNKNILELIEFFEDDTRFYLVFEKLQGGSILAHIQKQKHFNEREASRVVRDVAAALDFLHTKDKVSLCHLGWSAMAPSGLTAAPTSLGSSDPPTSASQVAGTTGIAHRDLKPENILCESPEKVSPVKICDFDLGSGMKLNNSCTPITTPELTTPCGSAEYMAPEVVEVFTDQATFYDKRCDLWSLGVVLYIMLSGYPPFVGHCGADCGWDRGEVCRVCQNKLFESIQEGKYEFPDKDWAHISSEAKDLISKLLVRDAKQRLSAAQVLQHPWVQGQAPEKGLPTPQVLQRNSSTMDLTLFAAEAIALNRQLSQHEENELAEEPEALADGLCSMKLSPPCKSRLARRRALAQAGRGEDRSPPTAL

[4] = target: recombinant human kinase, MNK2 (Homo sapiens, UniProt Q9HBH9); assay: MNK2 substrate phosphorylation assay; assay type: biochemical
Sequence of recombinant human kinase, MNK2 (Q9HBH9 whole entry): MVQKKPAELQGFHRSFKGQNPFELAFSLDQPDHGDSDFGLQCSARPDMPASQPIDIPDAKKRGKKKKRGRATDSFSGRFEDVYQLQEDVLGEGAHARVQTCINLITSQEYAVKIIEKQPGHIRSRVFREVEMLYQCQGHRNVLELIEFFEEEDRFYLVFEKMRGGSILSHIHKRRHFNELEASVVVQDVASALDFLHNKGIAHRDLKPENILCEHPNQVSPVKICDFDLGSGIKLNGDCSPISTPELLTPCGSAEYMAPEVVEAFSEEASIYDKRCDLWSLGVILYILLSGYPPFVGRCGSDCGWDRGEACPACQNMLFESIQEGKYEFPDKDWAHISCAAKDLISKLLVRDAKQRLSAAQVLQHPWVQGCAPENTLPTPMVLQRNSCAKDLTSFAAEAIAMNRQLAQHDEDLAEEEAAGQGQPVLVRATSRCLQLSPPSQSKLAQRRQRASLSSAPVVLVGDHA

[5] = test system: eIF4E phosphorylation at Serine 209 in the human embryonic kidney (HEK) 293 cell line; assay: Inhibition of eIF4E phosphorylation in HEK293 cells (phospho-specific antibody, fluorescent plate reader); assay type: cell-based; conditions: HEK293, 2 h, eIF4E phosphorylation at Serine 209, HEK293 cells, 2 hours exposure
Experimental: The ability of MNK inhibitors described herein to inhibit eIF4E phosphorylation at Serine 209 in the human embryonic kidney (HEK) 293 cell line was tested by exposing the cells to compound for 2 hours and then measuring eIF4E phosphorylation with a phosphorylation-specific antibody in a fluorescent plate reader. These experiments were done with HEK-293 cells plated on 96 well plates. Following treatment, cells were fixed with ice cold methanol for 10 min and then washed in 1× phosphate buffered saline (PBS) and the permeabilized with 0.02% Triton X-100 in 10% normal goat serum made up in PBS. Primary antibody was applied overnight at a concentration dilution of 1:2000 (p-eIF4E antibody from Cell Signaling ab76256). Following washing, cells were then exposed to secondary antibody conjugated to alexa-fluor 488 and then visualized on a Syngergy HTX plate reader. Fluorescence for p-eIF4E was measured and normalized to total DAPI fluorescence to determine the percentage of eIF4E phosphorylation in each well. Data were plotted in Graphpad Prism V8 to determine concentration-response effects and calculate IC50 values.

Row | pIC50 [3] | pIC50 [4] | Structure (SMILES) | dural IL-6 induced facial grimace measures (grimace score) [1] | dural IL-6 induced facial hypersensitivity (periorbital von Frey) [1] | hyperalgesic priming to dural pH 7.0 ([2]; 10 mg/kg oral gavage prior to dural IL-6, later tested with dural SIF pH 7.0) | hyperalgesic priming to dural pH 7.0 ([2]; 10 mg/kg oral gavage prior to dural pH 7.0, compared to the vehicle group) | pIC50 [5]
1 | – | – | Cc1cc(Nc2cc(N)ncn2)c(=O)n2c1C(=O)NC21CCCC2(CC2)CC1 (racemic) [rac-4ET-01-027, 6″-((6-aminopyrimidin-4-yl)amino)-8″-methyl-2″H-dispiro[cyclopropane-1,1′-CYCLOHEPTANE-4′,3″-imidazo[1,5-a]pyridine]-1″,5″-dione] | significantly attenuated | – | – | – | –
2 | – | – | Cc1cc(Nc2cc(N)ncn2)c(=O)n2c1C(=O)NC21CCCCC1 [eFT508, reference compound] | significantly attenuated | significantly attenuated | did not prime to dural pH 7.0 | did not prime to pH 7.0 | –
3 | 7.51 | 8.59 | Cc1cc(Nc2cc(N)ncn2)c(=O)n2c1C(=O)NC21CCC2(CCC2)C1 (stereo not drawn) [4ET-01-015] | – | – | – | – | 8.41
4 | 7.43 | 8.73 | Nc1cc(Nc2cc(Cl)c3n(c2=O)C2(CCC4(CC4)CC2)NC3=O)ncn1 [4ET-04-023] | significantly attenuated | – | – | – | 8.92
